Legend:
[1] = molecular target: T1, Sodium-dependent dopamine transporter (Rattus norvegicus, UniProt P23977); experiment: Inhibitory constant towards reuptake of [125I]-12 from dopamine transporter in rat striatal membranes; format: cell membranes, Membrane
[2] = molecular target: T1, Sodium-dependent dopamine transporter; experiment: Inhibitory constant towards reuptake of [125I]-13 from dopamine transporter in rat striatal membranes; format: cell membranes, Membrane
Rattus norvegicus [3] = experiment: Distribution of radio activity in tissues of unfasted male rats was measured as regional uptake at 120 min of time in ST/CB after intravenous administration; format: ADME, organism-based; details: in vivo, 2 h
Rattus norvegicus [4] = experiment: Distribution of radio activity in tissues of unfasted male rats was measured as regional uptake at 120 min of time in cerebellum after intravenous administration; format: ADME, organism-based; details: in vivo, 2 h
Rattus norvegicus [5] = experiment: Distribution of radio activity in tissues of unfasted male rats was measured alungblood after intravenous administration; format: ADME, organism-based, Lung; details: in vivo
Rattus norvegicus [6] = experiment: Distribution of radio activity in tissues of unfasted male rats was measured as at 2 min of time in skin after intravenous administration; format: ADME, organism-based; details: in vivo
Rattus norvegicus [7] = experiment: Distribution of radio activity in tissues of unfasted male rats was measured at 120 min of time in blood after intravenous administration; format: ADME, organism-based; details: in vivo, 2 h
Rattus norvegicus [8] = experiment: Distribution of radio activity in tissues of unfasted male rats was measured at 120 min of time in brain after intravenous administration; format: ADME, organism-based; details: in vivo, 2 h
Rattus norvegicus [9] = experiment: Distribution of radio activity in tissues of unfasted male rats was measured at 120 min of time in heart after intravenous administration; format: ADME, organism-based; details: in vivo, 2 h
Rattus norvegicus [10] = experiment: Distribution of radio activity in tissues of unfasted male rats was measured at 120 min of time in kidney after intravenous administration; format: ADME, organism-based; details: in vivo, 2 h
Rattus norvegicus [11] = experiment: Distribution of radio activity in tissues of unfasted male rats was measured at 120 min of time in liver after intravenous administration; format: ADME, organism-based; details: in vivo, 2 h
Rattus norvegicus [12] = experiment: Distribution of radio activity in tissues of unfasted male rats was measured at 120 min of time in lung after intravenous administration.; format: ADME, organism-based; details: in vivo, 2 h
Rattus norvegicus [13] = experiment: Distribution of radio activity in tissues of unfasted male rats was measured at 120 min of time in muscle after intravenous administration; format: ADME, organism-based, Muscle tissue; details: in vivo, 2 h
Rattus norvegicus [14] = experiment: Distribution of radio activity in tissues of unfasted male rats was measured at 120 min of time in skin after intravenous administration; format: ADME, organism-based; details: in vivo, 2 h
Rattus norvegicus [15] = experiment: Distribution of radio activity in tissues of unfasted male rats was measured at 120 min of time in spleen after intravenous administration; format: ADME, organism-based; details: in vivo, 2 h
Rattus norvegicus [16] = experiment: Distribution of radio activity in tissues of unfasted male rats was measured at 120 min of time in thyroid after intravenous administration; format: ADME, organism-based, Thyroid gland; details: in vivo, 2 h
Rattus norvegicus [17] = experiment: Distribution of radio activity in tissues of unfasted male rats was measured at 2 min of time in blood after intravenous administration; format: ADME, organism-based; details: in vivo
Rattus norvegicus [18] = experiment: Distribution of radio activity in tissues of unfasted male rats was measured at 2 min of time in brain after intravenous administration; format: ADME, organism-based; details: in vivo
Rattus norvegicus [19] = experiment: Distribution of radio activity in tissues of unfasted male rats was measured at 2 min of time in heart after intravenous administration; format: ADME, organism-based; details: in vivo
Rattus norvegicus [20] = experiment: Distribution of radio activity in tissues of unfasted male rats was measured at 2 min of time in kidney after intravenous administration; format: ADME, organism-based; details: in vivo
Rattus norvegicus [21] = experiment: Distribution of radio activity in tissues of unfasted male rats was measured at 2 min of time in muscle after intravenous administration; format: ADME, organism-based, Muscle tissue; details: in vivo
Rattus norvegicus [22] = experiment: Distribution of radio activity in tissues of unfasted male rats was measured as regional uptake at 60 min of time in cortex after intravenous administration; format: ADME, organism-based; details: in vivo, 1 h
Rattus norvegicus [23] = experiment: Distribution of radio activity in tissues of unfasted male rats was measured as regional uptake at 60 min of time in hippocampus after intravenous administration; format: ADME, organism-based; details: in vivo, 1 h
Rattus norvegicus [24] = experiment: Distribution of radio activity in tissues of unfasted male rats was measured as regional uptake at 60 min of time in striatum after intravenous administration; format: ADME, organism-based; details: in vivo, 1 h
Rattus norvegicus [25] = experiment: Distribution of radio activity in tissues of unfasted male rats was measured at 30 min of time in lung after intravenous administration; format: ADME, organism-based; details: in vivo, 0.5 h
Rattus norvegicus [26] = experiment: Distribution of radio activity in tissues of unfasted male rats was measured at 30 min of time in muscle after intravenous administration; format: ADME, organism-based, Muscle tissue; details: in vivo, 0.5 h
Rattus norvegicus [27] = experiment: Distribution of radio activity in tissues of unfasted male rats was measured at 30 min of time in skin after intravenous administration; format: ADME, organism-based; details: in vivo, 0.5 h
Rattus norvegicus [28] = experiment: Distribution of radio activity in tissues of unfasted male rats was measured at 30 min of time in kidney after intravenous administration; format: ADME, organism-based; details: in vivo, 0.5 h
Rattus norvegicus [29] = experiment: Distribution of radio activity in tissues of unfasted male rats was measured at 30 min of time in liver after intravenous administration; format: ADME, organism-based; details: in vivo, 0.5 h
Rattus norvegicus [30] = experiment: Distribution of radio activity in tissues of unfasted male rats was measured at 30 min of time in spleen after intravenous administration; format: ADME, organism-based; details: in vivo, 0.5 h
Rattus norvegicus [31] = experiment: Distribution of radio activity in tissues of unfasted male rats was measured at 30 min of time in thyroid after intravenous administration; format: ADME, organism-based, Thyroid gland; details: in vivo, 0.5 h

T1 sequence (P23977 whole entry): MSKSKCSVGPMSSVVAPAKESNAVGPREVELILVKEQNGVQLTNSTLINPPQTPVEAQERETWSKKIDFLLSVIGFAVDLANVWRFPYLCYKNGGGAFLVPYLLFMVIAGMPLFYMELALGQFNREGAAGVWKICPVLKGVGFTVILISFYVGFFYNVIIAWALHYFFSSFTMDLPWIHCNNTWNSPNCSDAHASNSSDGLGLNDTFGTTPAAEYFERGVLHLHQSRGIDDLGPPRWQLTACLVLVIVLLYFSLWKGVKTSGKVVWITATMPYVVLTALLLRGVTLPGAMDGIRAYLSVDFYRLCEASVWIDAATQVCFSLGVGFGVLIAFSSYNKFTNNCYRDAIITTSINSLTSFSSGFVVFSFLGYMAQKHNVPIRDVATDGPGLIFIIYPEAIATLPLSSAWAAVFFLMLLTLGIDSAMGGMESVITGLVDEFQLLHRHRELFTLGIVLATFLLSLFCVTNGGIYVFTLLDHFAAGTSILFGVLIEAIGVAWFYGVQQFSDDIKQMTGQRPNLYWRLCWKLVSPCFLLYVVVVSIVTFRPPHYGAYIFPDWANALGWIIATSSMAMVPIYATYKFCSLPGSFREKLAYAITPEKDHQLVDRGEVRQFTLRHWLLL

COC(=O)C1C(c2ccc(Cl)cc2)CC2CCC1N2C/C=C\I (stereo unspecified)
Ki [1]: 1.27 nM | Ki [2]: 6.3 nM | Dose/g (Rattus norvegicus [3]): 1.9% | Dose/g (Rattus norvegicus [4]): 0.02% | Injected dose/organ (Rattus norvegicus [5]): 1.23% | Injected dose/organ (Rattus norvegicus [6]): 7.27% | Injected dose/organ (Rattus norvegicus [7]): 5.16% | Injected dose/organ (Rattus norvegicus [8]): 0.04% | Injected dose/organ (Rattus norvegicus [9]): 0.11% | Injected dose/organ (Rattus norvegicus [10]): 0.46% | Injected dose/organ (Rattus norvegicus [11]): 1.28% | Injected dose/organ (Rattus norvegicus [12]): 0.4% | Injected dose/organ (Rattus norvegicus [13]): 9.22% | Injected dose/organ (Rattus norvegicus [14]): 19.3% | Injected dose/organ (Rattus norvegicus [15]): 0.09% | Injected dose/organ (Rattus norvegicus [16]): 1.29% | Injected dose/organ (Rattus norvegicus [17]): 5.01% | Injected dose/organ (Rattus norvegicus [18]): 1.27% | Injected dose/organ (Rattus norvegicus [19]): 0.85% | Injected dose/organ (Rattus norvegicus [20]): 2.65% | Injected dose/organ (Rattus norvegicus [21]): 29.15% | Dose/g (Rattus norvegicus [22]): 0.04% | Dose/g (Rattus norvegicus [23]): 0.04% | Dose/g (Rattus norvegicus [24]): 0.11% | Injected dose/organ (Rattus norvegicus [25]): 0.78% | Injected dose/organ (Rattus norvegicus [26]): 17.43% | Injected dose/organ (Rattus norvegicus [27]): 26.73% | Injected dose/organ (Rattus norvegicus [28]): 0.78% | Injected dose/organ (Rattus norvegicus [29]): 2.78% | Injected dose/organ (Rattus norvegicus [30]): 0.19% | Injected dose/organ (Rattus norvegicus [31]): 1.02%
